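Results reflect a 48-hour exposure of cells in 96-well plates to compound at five concentrations. GI50 is the concentration that inhibits growth by half.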 Calls of active or inactive are those of the source. No stated cut-off is given here; in the data, active = GI50 up to about 1.1 µM and inactive = higher.
Columns and labels:
Assay in all cases: inhibition of tumour cell growth, NCI panel, 48 h
[1] = system: 786-0
[2] = system: A549
[3] = system: ACHN
[4] = system: BT-549
[5] = system: CAKI-1
[6] = system: CCRF-CEM
[7] = system: COLO 205
[8] = system: DU-145
[9] = system: EKVX
[10] = system: HCT-116
[11] = system: HCT-15
[12] = system: HL-60
[13] = system: HOP-62
[14] = system: HOP-92
[15] = system: HT-29
[16] = system: Hs-578T
[17] = system: IGROV-1
[18] = system: K562
[19] = system: KM12
[20] = system: LOX IMVI
[21] = system: M14
[22] = system: MCF7
[23] = system: MDA-MB-231
[24] = system: MDA-MB-435
[25] = system: MDA-N
[26] = system: MOLT-4
[27] = system: Malme-3M
[28] = system: NCI-H226
[29] = system: NCI-H23
[30] = system: NCI-H522
[31] = system: NCI/ADR-RES
[32] = system: OVCAR-3
[33] = system: OVCAR-4
[34] = system: OVCAR-5
[35] = system: OVCAR-8
[36] = system: PC-3
[37] = system: RPMI-8226
[38] = system: RXF 393
[39] = system: SF-268
[40] = system: SF-295
[41] = system: SF-539
[42] = system: SK-MEL-28
[43] = system: SK-MEL-2
[44] = system: SK-MEL-5
[45] = system: SK-OV-3
[46] = system: SN12C
[47] = system: SNB-19
[48] = system: SNB-75
[49] = system: SW-620
[50] = system: T47D
[51] = system: TK-10
[52] = system: U-251
[53] = system: UACC-257
[54] = system: UO-31
[55] = system: NCI-H460
[56] = system: UACC-62
[57] = system: A498
[58] = system: HCC 2998

Measured: GI50

O=C(c1ccccc1)c1ccc2[nH]c(-c3c(Cl)c(Cl)c(Cl)c(Cl)c3C(=O)N/N=C/c3ccccc3)nc2c1
inactive: [1] 26.1 µM | [2] 27.7 µM | [3] 16.7 µM | [4] 28.5 µM | [5] 34.1 µM | [6] 12.3 µM | [7] 17.5 µM | [8] 38 µM | [9] 18.4 µM | [10] 32.1 µM | [12] 18.6 µM | [13] 23.1 µM | [14] 23.7 µM | [15] 30.8 µM | [16] 37.7 µM | [17] 14.9 µM | [18] 27.7 µM | [19] 28.2 µM | [20] 26.4 µM | [21] 31.2 µM | [22] 13.6 µM | [23] 19.2 µM | [24] 9.25 µM | [25] 16.3 µM | [26] 11.2 µM | [27] 26.1 µM | [28] 19.9 µM | [29] 23 µM | [30] 18.1 µM | [31] 19.8 µM | [32] 19.6 µM | [33] 16.4 µM | [34] 36.9 µM | [35] 32.2 µM | [36] 24.1 µM | [37] 23.4 µM | [38] 14.4 µM | [39] 27.5 µM | [40] 22.4 µM | [41] 25.1 µM | [42] 24 µM | [43] 21.6 µM | [44] 14.5 µM | [45] 35.7 µM | [46] 18.9 µM | [47] 32.6 µM | [48] 17.9 µM | [49] 37.2 µM | [50] 14.7 µM | [51] 38.8 µM | [52] 35.8 µM | [53] 23.3 µM | [54] 27.5 µM
23.2 µM: [11]

CC(C)=NN/C(=N\c1ccc(Cl)cc1)NS(=O)(=O)c1cc(Cl)c(Oc2ccc([N+](=O)[O-])cc2Cl)c(Cl)c1
> 100 µM: [11]
inactive: [1] > 100 µM | [2] 76.7 µM | [4] > 100 µM | [5] > 100 µM | [6] 78.5 µM | [7] > 100 µM | [8] > 100 µM | [9] 29.4 µM | [10] > 100 µM | [12] > 100 µM | [13] > 100 µM | [14] 51.8 µM | [15] > 100 µM | [16] 81.7 µM | [17] > 100 µM | [18] 53.6 µM | [19] > 100 µM | [20] > 100 µM | [21] 75.9 µM | [22] > 100 µM | [23] 60.1 µM | [24] 79.3 µM | [25] > 100 µM | [26] 25.4 µM | [27] 70 µM | [28] > 100 µM | [29] > 100 µM | [55] > 100 µM | [30] 91 µM | [31] > 100 µM | [32] > 100 µM | [33] 67.3 µM | [34] > 100 µM | [35] > 100 µM | [36] 87.9 µM | [37] 29.6 µM | [39] > 100 µM | [40] 86.1 µM | [42] > 100 µM | [43] > 100 µM | [44] > 100 µM | [46] > 100 µM | [47] > 100 µM | [49] > 100 µM | [50] 22.2 µM | [51] > 100 µM | [52] > 100 µM | [53] > 100 µM | [56] > 100 µM | [54] 56.8 µM

COc1ccc(NC(C)c2ccncc2)cc1 (configuration not stated)
> 100 µM: [11]
inactive: [1] > 100 µM | [57] > 100 µM | [2] > 100 µM | [3] > 100 µM | [4] > 100 µM | [5] > 100 µM | [6] > 100 µM | [7] > 100 µM | [8] > 100 µM | [9] > 100 µM | [58] > 100 µM | [10] > 100 µM | [13] > 100 µM | [14] > 100 µM | [15] > 100 µM | [16] > 100 µM | [18] > 100 µM | [19] > 100 µM | [20] > 100 µM | [21] > 100 µM | [22] > 100 µM | [23] > 100 µM | [24] > 100 µM | [25] > 100 µM | [26] > 100 µM | [27] > 100 µM | [28] > 100 µM | [29] > 100 µM | [55] > 100 µM | [30] > 100 µM | [31] > 100 µM | [32] > 100 µM | [33] > 100 µM | [34] > 100 µM | [35] > 100 µM | [36] > 100 µM | [37] > 100 µM | [38] > 100 µM | [39] > 100 µM | [40] > 100 µM | [41] > 100 µM | [42] > 100 µM | [43] > 100 µM | [44] > 100 µM | [45] 18 µM | [46] > 100 µM | [47] > 100 µM | [48] > 100 µM | [49] > 100 µM | [50] > 100 µM | [51] > 100 µM | [52] > 100 µM | [53] > 10 µM | [54] > 100 µM

CC(C)(C)c1ccc(NS(=O)(=O)c2ccc(N)cc2)cc1
inactive: [1] 23 µM | [57] 20.1 µM | [2] 27.1 µM | [3] 29.4 µM | [4] 23.4 µM | [5] 38.3 µM | [6] 16.3 µM | [7] 16.1 µM | [8] 30.5 µM | [9] 26.9 µM | [58] 18.8 µM | [10] 18 µM | [12] 18.1 µM | [15] 19 µM | [16] 27.4 µM | [17] 18.8 µM | [18] 17.8 µM | [19] 36.6 µM | [20] 17.6 µM | [21] 20.5 µM | [22] 18.4 µM | [23] 25.8 µM | [24] 29.9 µM | [25] 23.6 µM | [26] 14.5 µM | [27] 19.5 µM | [28] 22.2 µM | [29] 26 µM | [55] 33.7 µM | [30] 17 µM | [31] 25.4 µM | [32] 2.76 µM | [33] 35.8 µM | [34] 31.5 µM | [35] 27.5 µM | [36] 28.5 µM | [37] 11.6 µM | [38] 29.1 µM | [39] 26.9 µM | [40] 1.9 µM | [41] 25.8 µM | [42] 27.2 µM | [43] 19.5 µM | [44] 17.9 µM | [45] 3.29 µM | [46] 22.3 µM | [47] 35.7 µM | [48] 30.8 µM | [49] 26.9 µM | [50] 28.3 µM | [51] 59 µM | [52] 19.3 µM | [53] 38.4 µM | [56] 15.7 µM | [54] 24.9 µM
active: [13] 0.634 µM
30.3 µM: [11]

Source: ChEMBL document CHEMBL1201862, “PubChem BioAssay data set” (2004)
